Data on 34 compounds can be found in publication PMC4270767 (PLoS ONE, 2014).

The IC50 is the concentration that inhibits the measured activity by half.

“And” between values parts separate entries of the source, which are not always exact repeats. Equal entries are not always repeated. Structures can show the parent of a compound that is named as a salt. Where two headings read alike, the source gives them in different places.

Assay [1] concerns the target PSP domain of MtSerB2 (PSPD) (Mycobacterium tuberculosis, UniProt O53289). Put plainly: biochemical. Also noted: species or system M. tuberculosis.
Assay [2] has as its target T1, MtSerB2 (Mycobacterium tuberculosis, UniProt O53289). Description: Inhibition of MtSerB2 hydrolysis of L-phosphoserine (malachite green). The assay is classed as biochemical, M. tuberculosis.
For assay [3], the target named is T1, MtSerB2. Description: Effects of added amino acids on MtSerB2 phosphatase activity. The assay is classed as biochemical, M. tuberculosis. The conditions noted are these: for % activation or IC50: amino acids without effect.
For assay [4], the target named is T1, MtSerB2. The format is biochemical, M. tuberculosis. Conditions: for effect of divalent cation on MtSerB2 activity: relative to Mg^2+.
The target in assay [5] is T1, MtSerB2. Conditions: Superdex S200, samples pre-equilibrated 1 h.

Sequence of PSP domain of MtSerB2 (PSPD) (O53289 165-409 limits assumed): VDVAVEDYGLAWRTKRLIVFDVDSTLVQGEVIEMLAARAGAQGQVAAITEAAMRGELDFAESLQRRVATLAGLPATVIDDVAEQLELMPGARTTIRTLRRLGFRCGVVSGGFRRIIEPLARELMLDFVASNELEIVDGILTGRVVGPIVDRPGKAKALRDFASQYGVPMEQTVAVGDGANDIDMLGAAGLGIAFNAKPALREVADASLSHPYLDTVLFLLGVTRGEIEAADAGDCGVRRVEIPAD
T1 sequence (O53289 whole entry): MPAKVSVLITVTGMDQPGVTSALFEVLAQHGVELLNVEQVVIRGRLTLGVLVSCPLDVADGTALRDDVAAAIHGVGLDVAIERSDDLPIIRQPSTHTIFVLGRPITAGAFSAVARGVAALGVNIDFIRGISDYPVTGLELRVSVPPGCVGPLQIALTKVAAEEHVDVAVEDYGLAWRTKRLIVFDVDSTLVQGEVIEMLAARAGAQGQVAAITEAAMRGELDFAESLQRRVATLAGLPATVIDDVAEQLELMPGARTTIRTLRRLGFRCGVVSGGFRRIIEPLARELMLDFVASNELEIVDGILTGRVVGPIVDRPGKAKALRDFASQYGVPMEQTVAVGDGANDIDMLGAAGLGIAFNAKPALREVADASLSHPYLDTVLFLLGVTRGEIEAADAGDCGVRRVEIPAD

Regarding `CN(C)CCCN1c2ccccc2Sc2ccc(Cl)cc21` [Chlorpromazine, Chlorpromazine Hydrochloride], in assay [1], the “Imax (%) PSPD” value was found to be 95%. In assay [1] (IC50 (µM) PSPD), the IC50 is ~6.25 µM and 6.25 µM. Also, at MtSerB2 [2], the “Imax (%) SerB2” value was 70%, the “Inhibition of phosphatase activity” value was “inhibition at nanomolar concentrations” and the type of inhibition result is listed as “non-competitive”. For the same compound, the IC50 on MtSerB2 [2] (read-out: IC50 (µM) SerB2) was determined as 0.92 ± 0.1 µM.

Turning to `C[C@@H](O)[C@H](N)C(=O)O` [Thr], at MtSerB2 [3], the Activation factor result is given as “Inhibition” and 3460 ± 206 µM corresponded to half-maximal inhibition (IC50).

For the compound `N[C@@H](Cc1c[nH]cn1)C(=O)O` [His], on MtSerB2 [3], the Activation factor entry is recorded as “Inhibition” and the IC50 was 4860 ± 218 µM.

`NC(CP(=O)(O)O)C(=O)O` (racemic) [D,L- AP3, DL-2-Amino-3-Phosphonopropionic Acid]: in assay [1], the “Imax (%) PSPD” value turned out to be 19%. Also, at MtSerB2 [2], the “Imax (%) SerB2” value worked out at 22%.

As for `C[N+](C)(C)CCOP(=O)([O-])OCC(O)CO` (stereo not drawn) [α-GPC, α-Glycerophosphorylcholine], the “Imax (%) PSPD” value in assay [1] is listed as 31%. Further, the “Imax (%) SerB2” value at MtSerB2 [2] came to 35%.

For the compound `CSCC[C@H](N)C(=O)O` [Met], at MtSerB2 [3], the Activation factor result is on record as “Non modulator” and the “% activation or IC50” value is given as “No Change”.

Consider `[Ni+2]` [Ni^2+], for which the “effect of divalent cation on MtSerB2 activity” value (from here on “effect of divalent cation”) at MtSerB2 [4] is given as “deactivates”.

Consider `NCC(=O)O` [Gly], for which, at MtSerB2 [3], the Activation factor result is reported as “Inhibition” and half-maximal inhibition (IC50) was put at 381 ± 15 µM.

As for `O=C(O)[C@@H]1CCCN1` [Pro], on MtSerB2 [3], the Activation factor result is reported as “Inhibition” and the IC50 was greater than 5000 µM.

On to `C[C@H](N)C(=O)O` [Ala], for which, at MtSerB2 [3], the Activation factor entry is given as “Inhibition” and the IC50 stood at 3830 ± 234 µM.

`CC(C)C[C@H](N)C(=O)O` [Leu]: on MtSerB2 [3], the Activation factor entry is recorded as “Non modulator” and the “% activation or IC50” value is on record as “No Change”.

As to `N[C@@H](Cc1ccc(O)cc1)C(=O)O` [Tyr], the Activation factor result at MtSerB2 [3] is “Activation”.

Regarding `N=C(N)NCCC[C@H](N)C(=O)O` [Arg], on MtSerB2 [3], the Activation factor entry was “Inhibition” and the half-maximal inhibitory concentration (IC50) came to 632 ± 14 µM.

With `NCCCC[C@H](N)C(=O)O` [Lys], on MtSerB2 [3], the “% activation” value was 40% and the Activation factor result is listed as “Activation”.

Turning to `[Co+2]` [Co^2+], the “effect of divalent cation” value at MtSerB2 [4] is on record as “deactivates”.

As to `N[C@@H](CO)C(=O)O` [L-serine], the “Imax (%) PSPD” value in assay [1] was determined as 70%. Moreover, the IC50 is 824 ± 39 µM in assay [1] (IC50 (µM) PSPD) and 0.78 ± 0.08 µM against MtSerB2 [2]. Further, the Activation factor result at MtSerB2 [3] is “Inhibition”. Besides, on MtSerB2 [2], the “Imax (%) SerB2” value came to 65%. Also, the “molar ratio of L-serine and MtSerB2 at shift of dimer to tetramer (higher order oligomer)” value at MtSerB2 [5] is roughly 0.8.

Take Sodium Vanadate: the “Imax (%) PSPD” value in assay [1] came out at 93%. For the same compound, at MtSerB2 [2], the “Imax (%) SerB2” value came to 88%.

For the compound `N[C@@H](Cc1ccccc1)C(=O)O` [Phe], at MtSerB2 [3], the Activation factor entry is “Activation”.

Turning to `N[C@@H](CC(=O)O)C(=O)O` [Asp], at MtSerB2 [3], the Activation factor result is on record as “Inhibitor” and it took 1620 ± 84 µM to reach half-maximal inhibition (IC50).

Regarding `[Ca+2].[Cl-].[Cl-]` [Ca^2+], the “effect of divalent cation” value on MtSerB2 [4] is “deactivates”.

With `N[C@@H](CCC(=O)O)C(=O)O` [Glu], on MtSerB2 [3], the Activation factor entry is on record as “Inhibition” and the IC50 came out at 363 ± 20 µM.

Take `C=C1[C@@H](O)[C@@H]2O[C@]3(CC[C@H](/C=C/[C@@H](C)[C@@H]4CC(C)=C[C@@]5(O[C@H](C[C@@](C)(O)C(=O)O)CC[C@H]5O)O4)O3)CC[C@H]2O[C@@H]1[C@@H](O)C[C@H](C)[C@H]1O[C@@]2(CCCCO2)CC[C@H]1C` [Okadaic acid]: in assay [1], the “Imax (%) PSPD” value turned out to be 22%. At MtSerB2 [2], the “Imax (%) SerB2” value was determined as 14% and the “Inhibition of phosphatase activity” value is listed as “not able to inhibit the phosphatase activity”.

Regarding `N[C@@H](Cc1c[nH]c2ccccc12)C(=O)O` [Trp], on MtSerB2 [3], the Activation factor result is given as “Inhibition” and half-maximal inhibition (IC50) was put at 322 ± 23 µM.

Consider `N[C@@H](CS)C(=O)O` [Cys], for which, on MtSerB2 [3], the Activation factor entry was “Non Modulator” and the “% activation or IC50” value is on record as “No Change”.

As for `CC(C)[C@H](N)C(=O)O` [Val], at MtSerB2 [3], the Activation factor result is “Inhibition” and the IC50 stood at 3660 ± 212 µM.

Consider `O=C(O)CN(CCN(CC(=O)O)CC(=O)O)CC(=O)O` [EDTA], for which, at MtSerB2 [2], the “Inhibition of phosphatase activity” value is “decrease of enzyme activity”.

For the compound `N[C@@H](CP(=O)(O)O)C(=O)O` [L- AP3, L-2-amino-3-phosphonopropionate], the “Imax (%) PSPD” value in assay [1] is 21%. Besides, at MtSerB2 [2], the “Imax (%) SerB2” value was 23%.

With `NC(=O)CC[C@H](N)C(=O)O` [Gln], on MtSerB2 [3], the Activation factor result is “Inhibition” and the IC50 came to 432 ± 13 µM.

For `[F-].[Na+]` [NaF, Sodium fluoride], in assay [1], the “Imax (%) PSPD” value worked out at 72%. For the same compound, the IC50 in assay [1] (read-out: IC50 (µM) PSPD) is 2780 ± 216 µM; at MtSerB2 [2] (read-out: IC50), roughly 3000 µM; on MtSerB2 [2] (read-out: IC50 (µM) SerB2), 3110 ± 155 µM. Moreover, the “Imax (%) SerB2” value at MtSerB2 [2] came to 55%. Further, the “Inhibition of phosphatase activity” value at MtSerB2 [2] was “decrease of enzyme activity”.

With `[Mn+2]` [Mn^2+], the “effect of divalent cation” value at MtSerB2 [4] is “deactivates”.

Turning to `[Zn+2]` [Zn^2+], at MtSerB2 [4], the “concentration level of inhibition” value was “inhibits the activity at nanomolar levels” and the “effect of divalent cation” value is reported as “deactivates”.

Consider `C[N+](C)(C)CCOP(=O)(O)O` [Phosphorylcholine], for which the “Imax (%) PSPD” value in assay [1] is recorded as 14%. Further, at MtSerB2 [2], the “Imax (%) SerB2” value came out at 10%.

Consider `CC[C@H](C)[C@H](N)C(=O)O` [Ile], for which, at MtSerB2 [3], the Activation factor result is recorded as “Non modulator” and the “% activation or IC50” value was “No Change”.

With `NC(=O)C[C@H](N)C(=O)O` [Asn], at MtSerB2 [3], the Activation factor entry was “Non modulator” and the “% activation or IC50” value is reported as “No Change”.
